{
  "source": "patent US8486372B2",
  "about": "“Cyclic azapeptides as integrin markers and methods of using” (Siemens Medical Solutions USA, Inc., priority 2007, dated 2013)",
  "target": "T1, Integrin αvβ3 expressing U87MG cells (Homo sapiens, UniProt P05106+P06756)",
  "T1 construct": "Integrin αvβ3 expressing U87MG cells; endogenous in cells; host or cells: U87MG cells",
  "assay": "Cell-based integrin binding competition assay against green fluorescence labeled compound 13",
  "conditions": "0-32 μM compound, 2 μM compound 13, 2 hrs, fluorescence reading, FIG. 2",
  "procedure": "Integrin αvβ3 expressing U87MG cells were incubated with a series of concentration of RGD compounds (0-32 μM) in the presence of 2 μM of green fluorescence labeled compound 13 for 2 hrs. After incubation, cells were washed three times to eliminate unbound RGD compounds. Fluorescence readings (RLU) were then taken (excitation at 491 nm, emission at 518 nm, cutoff 515 nm).",
  "data": [
    {"smiles": "N=C(N)NCCC[C@@H]1NC(=O)[C@H](CCCCN)NC(=O)N(Cc2ccccc2)NC(=O)[C@H](CC(=O)O)NC(=O)CNC1=O", "note": "[Compound 7, 2-((5S,8S,14S)-5-(4-aminobutyl)-2-benzyl-8-(3-guanidinopropyl)-3,6,9,12,15-pentaoxo-1,2,4,7,10,13-hexaazacyclopentadecan-14-yl)acetic acid]", "values": [
      {"measurement": "potency in binding competition", "value": "very similar in potency"}
    ]}
  ]
}
